Laboratory results as given in patent US9085603B2, “Progesterone receptor antagonists” (Bayer Intellectual Property GmbH, priority 2010, dated 2015).

Each compound was assayed against T1, human progesterone receptor B (Homo sapiens, UniProt P06401) (assay: Progesterone receptor antagonistic effect in stably transfected SK-N-MC cells, MTV-LUC reporter (PR-B)). Details: antagonism of 0.1 nmol/l promegestone, luciferase reporter, 24 hours.
T1 construct: expressed in transfected cells; host or cells: SK-N-MC human neuroblastoma cells, stably transfected with pRChPR-B-neo and pMMTV-LUC
T1 sequence (P06401 1-933): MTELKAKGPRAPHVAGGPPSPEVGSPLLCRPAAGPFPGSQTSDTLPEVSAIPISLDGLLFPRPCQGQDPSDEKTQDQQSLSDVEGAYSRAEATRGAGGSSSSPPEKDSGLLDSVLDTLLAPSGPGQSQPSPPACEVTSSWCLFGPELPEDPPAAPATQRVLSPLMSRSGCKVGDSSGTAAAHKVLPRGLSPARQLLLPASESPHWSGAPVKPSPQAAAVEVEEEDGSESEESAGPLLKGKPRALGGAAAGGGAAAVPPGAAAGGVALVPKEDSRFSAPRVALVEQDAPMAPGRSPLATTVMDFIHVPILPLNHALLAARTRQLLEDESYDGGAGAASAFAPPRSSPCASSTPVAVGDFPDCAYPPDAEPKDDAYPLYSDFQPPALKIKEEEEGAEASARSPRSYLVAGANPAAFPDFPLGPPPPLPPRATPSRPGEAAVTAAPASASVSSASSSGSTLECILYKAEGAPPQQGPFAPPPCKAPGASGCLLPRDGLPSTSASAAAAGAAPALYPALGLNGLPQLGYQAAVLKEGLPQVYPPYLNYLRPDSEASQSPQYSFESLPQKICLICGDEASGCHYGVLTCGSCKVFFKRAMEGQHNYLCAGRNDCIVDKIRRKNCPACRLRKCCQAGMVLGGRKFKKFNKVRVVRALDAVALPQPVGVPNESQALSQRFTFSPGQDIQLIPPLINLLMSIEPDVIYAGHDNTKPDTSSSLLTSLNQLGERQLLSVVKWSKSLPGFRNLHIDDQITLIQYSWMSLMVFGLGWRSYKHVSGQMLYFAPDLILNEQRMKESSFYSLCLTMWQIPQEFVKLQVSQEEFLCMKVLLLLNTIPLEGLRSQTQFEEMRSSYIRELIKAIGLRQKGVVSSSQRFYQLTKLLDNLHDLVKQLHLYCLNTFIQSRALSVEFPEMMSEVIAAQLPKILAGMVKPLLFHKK
Format: cell-based
Description: (§1) Progesterone Receptor Antagonistic Effect in Stable Transfectants of Human Neuroblastoma Cells (SK-N-MC cells) with the Human Progesterone A or Progesterone B Receptor and a MTV-LUC Reporter Construct
(§2) SK-N-MC cells (human neuroblastoma cells), which have been stably transfected with plasmids which express the human progesterone receptor B (pRChPR-B-neo) or the human progesterone receptor A (pRChPR-A-neo) and a reporter construct (pMMTV-LUC), were incubated for 24 hours either in the absence (negative control) or in the presence of increasing amounts of the particular test compound (0.01 nmol/l, 0.1 nmol/l, 1 nmol/l, 10 nmol/l, 100 nmol/l and 1 μmol/l) in order to determine the agonistic efficacy. As a positive control of the reporter gene induction, the cells were treated with the synthetic gestagen promegestone (0.01 nmol/l, 0.1 nmol/l, 1 nmol/l, 10 nmol/l, 100 nmol/l and 1 μmol/l). To determine the antagonistic activity, the cells were treated with 0.1 nmol/l of promegestone and additionally with increasing amounts of the particular test compound (0.01 nmol/l, 0.1 nmol/l, 1 nmol/l, 10 nmol/l, 100 nmol/l and 1 μmol/l). The activity of the reporter gene LUC (LUC=luciferase) was determined in the cell lysates and measured as RLU (relative light units). All measurement values are given as percentage efficacy and as EC50 or IC50 concentrations.
Work on CC(C)(C)OC(=O)N1CCCN(Cc2ccc([C@H]3C[C@@]4(C)[C@@H](CC[C@@]4(O)C(F)(F)C(F)(F)F)[C@@H]4CCC5=CC(=O)CCC5=C43)cc2)CC1 [Example 6, tert-Butyl 4-{4-[(11β,17β)-17-hydroxy-3-oxo-17-(pentafluoroethyl)estra-4,9-dien-11-yl]benzyl}-1,4-diazepane-1-carboxylate] yielded an IC50 of 0.3 nM. CN1CCN(Cc2ccc([C@H]3C[C@@]4(C)[C@@H](CC[C@@]4(O)C(F)(F)C(F)(F)F)[C@@H]4CCC5=CC(=O)CCC5=C43)cc2)CC1 [Example 2, (11β,17β)-17-Hydroxy-11-{4-[(4-methylpiperazin-1-yl)methyl]phenyl}-17-(pentafluoroethyl)estra-4,9-dien-3-one] was tested, and the IC50 was 2.8 nM.

The compounds below were run against T2, human progesterone receptor A (Homo sapiens, UniProt P06401) (assay: Progesterone receptor antagonistic effect in stably transfected SK-N-MC cells, MTV-LUC reporter (PR-A)). Details: antagonism of 0.1 nmol/l promegestone, luciferase reporter, 24 hours.
T2 construct: expressed in transfected cells; host or cells: SK-N-MC human neuroblastoma cells, stably transfected with pRChPR-A-neo and pMMTV-LUC
T2 sequence (P06401 1-769 isoform P06401-2): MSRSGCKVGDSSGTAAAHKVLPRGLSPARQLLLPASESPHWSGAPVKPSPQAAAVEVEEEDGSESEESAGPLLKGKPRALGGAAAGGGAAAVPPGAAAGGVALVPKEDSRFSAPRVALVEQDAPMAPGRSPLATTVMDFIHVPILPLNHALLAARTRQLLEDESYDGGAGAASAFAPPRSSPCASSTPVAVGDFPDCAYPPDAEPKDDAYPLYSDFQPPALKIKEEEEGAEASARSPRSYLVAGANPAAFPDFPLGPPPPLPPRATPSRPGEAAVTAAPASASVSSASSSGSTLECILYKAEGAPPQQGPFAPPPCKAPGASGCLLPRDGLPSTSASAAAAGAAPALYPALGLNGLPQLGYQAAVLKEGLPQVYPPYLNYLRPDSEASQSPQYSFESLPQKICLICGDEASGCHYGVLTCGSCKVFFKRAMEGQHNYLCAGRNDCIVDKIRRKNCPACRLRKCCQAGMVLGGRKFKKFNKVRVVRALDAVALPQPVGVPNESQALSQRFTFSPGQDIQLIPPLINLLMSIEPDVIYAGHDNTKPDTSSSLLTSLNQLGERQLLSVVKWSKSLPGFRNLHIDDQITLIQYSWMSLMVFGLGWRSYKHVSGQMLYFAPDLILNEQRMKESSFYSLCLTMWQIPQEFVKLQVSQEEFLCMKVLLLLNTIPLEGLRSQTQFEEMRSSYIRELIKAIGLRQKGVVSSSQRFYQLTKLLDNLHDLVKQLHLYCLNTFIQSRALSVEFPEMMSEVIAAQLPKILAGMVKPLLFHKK
Format: cell-based
Description: as §1, §2
With CC(C)(C)OC(=O)N1CCCN(Cc2ccc([C@H]3C[C@@]4(C)[C@@H](CC[C@@]4(O)C(F)(F)C(F)(F)F)[C@@H]4CCC5=CC(=O)CCC5=C43)cc2)CC1 [Example 6, tert-Butyl 4-{4-[(11β,17β)-17-hydroxy-3-oxo-17-(pentafluoroethyl)estra-4,9-dien-11-yl]benzyl}-1,4-diazepane-1-carboxylate] the IC50 was 0.33 nM. In the case of COC(=O)c1cccc(NCc2ccc([C@H]3C[C@@]4(C)[C@@H](CC[C@@]4(O)C(F)(F)C(F)(F)F)[C@@H]4CCC5=CC(=O)CCC5=C43)cc2)c1 [Example 39, Methyl 3-({4-[(11β,17β)-17-hydroxy-3-oxo-17-(pentafluoroethyl)estra-4,9-dien-11-yl]benzyl}amino)benzoate], the IC50 is reported as 1.77 nM. In the case of COC(=O)c1ccccc1NCc1ccc([C@H]2C[C@@]3(C)[C@@H](CC[C@@]3(O)C(F)(F)C(F)(F)F)[C@@H]3CCC4=CC(=O)CCC4=C32)cc1 [Example 28, Methyl 2-({4-[(11β,17β)-17-hydroxy-3-oxo-17-(pentafluoroethyl)estra-4,9-dien-11-yl]benzyl}amino)benzoate], the IC50 is reported as 5.05 nM. For CC(=O)Nc1ccc(NCc2ccc([C@H]3C[C@@]4(C)[C@@H](CC[C@@]4(O)C(F)(F)C(F)(F)F)[C@@H]4CCC5=CC(=O)CCC5=C43)cc2)cc1 [Example 38, N-[4-({4-[(11β,17β)-17-Hydroxy-3-oxo-17-(pentafluoroethyl)estra-4,9-dien-11-yl]benzyl}amino)phenyl]acetamide], the IC50 was 0.66 nM. COC(=O)c1ccc(NCc2ccc([C@H]3C[C@@]4(C)[C@@H](CC[C@@]4(O)C(F)(F)C(F)(F)F)[C@@H]4CCC5=CC(=O)CCC5=C43)cc2)cc1 [Example 29, Methyl 4-({4-[(11β,17β)-17-hydroxy-3-oxo-17-(pentafluoroethyl)estra-4,9-dien-11-yl]benzyl}amino)benzoate] gave an IC50 of 1.19 nM. C[C@]12C[C@H](c3ccc(CNc4ccc(Cl)cc4)cc3)C3=C4CCC(=O)C=C4CCC3C1CC[C@@]2(O)C(F)(F)C(F)(F)F (stereo partly drawn) [Example 23, (11β,17β)-11-(4-{[(4-Chlorophenyl)amino]methyl}phenyl)-17-hydroxy-17-(pentafluoroethyl)estra-4,9-dien-3-one] showed an IC50 of 2.07 nM. With CN(C)CCN1CCN(Cc2ccc([C@H]3C[C@@]4(C)C(CC[C@@]4(O)C(F)(F)C(F)(F)F)C4CCC5=CC(=O)CCC5=C43)cc2)CC1 (stereo partly drawn) [Example 51, (11β,17β)-11-[4-({4-[2-(Dimethylamino)ethyl]piperazin-1-yl}methyl)phenyl]-17-hydroxy-17-(pentafluoroethyl)estra-4,9-dien-3-one] the IC50 was 64.7 nM. C[C@]12C[C@H](c3ccc(CN4CCN(c5cnccn5)CC4)cc3)C3=C4CCC(=O)C=C4CC[C@H]3[C@@H]1CC[C@@]2(O)C(F)(F)C(F)(F)F [Example 35, (11β,17β)-17-Hydroxy-17-(pentafluoroethyl)-11-(4-{[4-(pyrazin-2-yl)piperazin-1-yl]methyl}phenyl)estra-4,9-dien-3-one] showed an IC50 of 0.68 nM. CCN(CC)Cc1ccc([C@H]2C[C@@]3(C)C(CC[C@@]3(O)C(F)(F)C(F)(F)F)C3CCC4=CC(=O)CCC4=C32)cc1 (stereo partly drawn) [Example 24, (11β,17β)-11-{4-[(Diethylamino)methyl]phenyl}-17-hydroxy-17-(pentafluoroethyl)estra-4,9-dien-3-one] was tested, and the IC50 was 51 nM. Work on C[C@]12C[C@H](c3ccc(CN4CCN(Cc5ccccn5)CC4)cc3)C3=C4CCC(=O)C=C4CC[C@H]3[C@@H]1CC[C@@]2(O)C(F)(F)C(F)(F)F [Example 43, (11β,17β)-17-Hydroxy-17-(pentafluoroethyl)-11-(4-{[4-(pyridin-2-ylmethyl)piperazin-1-yl]methyl}phenyl)estra-4,9-dien-3-one] yielded an IC50 of 2.88 nM. In the case of C[C@]12C[C@H](c3ccc(CN4CCN(CCc5ccccc5)CC4)cc3)C3=C4CCC(=O)C=C4CC[C@H]3[C@@H]1CC[C@@]2(O)C(F)(F)C(F)(F)F [Example 34, (11β,17β)-17-Hydroxy-17-(pentafluoroethyl)-11-(4-{[4-(2-phenylethyl)piperazin-1-yl]methyl}phenyl)estra-4,9-dien-3-one], the IC50 is reported as 5.55 nM. With COc1ccccc1NCc1ccc([C@H]2C[C@@]3(C)[C@@H](CC[C@@]3(O)C(F)(F)C(F)(F)F)[C@@H]3CCC4=CC(=O)CCC4=C32)cc1 [Example 21, (11β,17β)-17-Hydroxy-11-(4-{[(2-methoxyphenyl)amino]methyl}phenyl)-17-(pentafluoroethyl)estra-4,9-dien-3-one] the IC50 was 6.06 nM. C[C@]12C[C@H](c3ccc(CN4CCN(c5ccccc5)CC4)cc3)C3=C4CCC(=O)C=C4CC[C@H]3[C@@H]1CC[C@@]2(O)C(F)(F)C(F)(F)F [Example 25, (11β,17β)-17-Hydroxy-17-(pentafluoroethyl)-11-{4-[(4-phenylpiperazin-1-yl)methyl]phenyl}estra-4,9-dien-3-one] gave an IC50 of 3.06 nM. In the case of C[C@]12C[C@H](c3ccc(CN4CCN(Cc5ccncc5)CC4)cc3)C3=C4CCC(=O)C=C4CC[C@H]3[C@@H]1CC[C@@]2(O)C(F)(F)C(F)(F)F [Example 37, (11β,17β)-17-Hydroxy-17-(pentafluoroethyl)-11-(4-{[4-(pyridin-4-ylmethyl)piperazin-1-yl]methyl}phenyl)estra-4,9-dien-3-one], the IC50 is reported as 2.33 nM. For C[C@]12C[C@H](c3ccc(CN4CCC(c5ccccc5)CC4)cc3)C3=C4CCC(=O)C=C4CC[C@H]3[C@@H]1CC[C@@]2(O)C(F)(F)C(F)(F)F [Example 41, (11β,17β)-17-Hydroxy-17-(pentafluoroethyl)-11-{4-[(4-phenylpiperidin-1-yl)methyl]phenyl}estra-4,9-dien-3-one], the IC50 was 11.2 nM. With C[C@]12C[C@H](c3ccc(CNc4cccc(S(N)(=O)=O)c4)cc3)C3=C4CCC(=O)C=C4CC[C@H]3[C@@H]1CC[C@@]2(O)C(F)(F)C(F)(F)F [Example 40, 3-({4-[(11β,17β)-17-Hydroxy-3-oxo-17-(pentafluoroethyl)estra-4,9-dien-11-yl]benzyl}amino)benzenesulphonamide] the IC50 was 0.49 nM.
